Key:
HCT116 WT cells = test: HCT116 WT (parent) cell line proliferation / cell viability (CellTiter-Glo, 6 days); assay type: cell-based; settings: Homo sapiens, HCT-116, 144 h, 6 days treatment
How it was run: (§1)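 Isogenic HCT116 parent and MTAP-knockout cells in RPMI 1640 + 10% FBS, plated overnight, then exposed to compound for 6 days (37 °C, 5% CO2). Viability by CellTiter-Glo luminescence. Dilutions: 8–9 points from 1 or 10 μM (1:3), or 22 points from 10 or 50 μM (1:2); IC50 by 4-parameter or Hill −1 fit.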

HCT116 MTAP null cells = test: HCT116 MTAP null cell line proliferation / cell viability (CellTiter-Glo, 6 days); assay type: cell-based; settings: 144 h; HCT116 MTAP null cells, 6 days treatment, CellTiter-Glo cell viability; read-out: HCT-116 MTAP null IC50
How it was run: as §1

Row | IC50 (HCT116 WT cells) | IC50 (HCT116 MTAP null cells) | Structure (SMILES)
1 | 657 nM | 15 nM | CN(C(=O)c1ccc2nc(N)c3cnn(C)c3c2c1)[C@@H]1COc2cc(-c3cc(C(F)(F)F)ccc3F)ccc21 [Example 660, 4-amino-N-((3S)-6-(2-fluoro-5-(trifluoromethyl)phenyl)-2,3-dihydro-1-benzofuran-3-yl)-N,1-dimethyl-1H-pyrazolo[4,3-c]quinoline-8-carboxamide]
2 | 481 nM | 14 nM | CN(C(=O)c1ccc2nc(N)c3cnn(C)c3c2c1)[C@@H]1COc2cc(-c3ccc(C(F)(F)F)cc3F)ccc21 [Example 661, 4-amino-N-((3S)-6-(2-fluoro-4-(trifluoromethyl)phenyl)-2,3-dihydro-1-benzofuran-3-yl)-N,1-dimethyl-1H-pyrazolo[4,3-c]quinoline-8-carboxamide]
3 | 1120 nM | 21 nM | CN(C(=O)c1ccc2nc(N)c3cnn(C)c3c2c1)[C@@H]1COc2cc(-c3ccnc(OCC(F)(F)F)c3)ccc21 [Example 662, 4-amino-N,1-dimethyl-N-((3S)-6-(2-(2,2,2-trifluoroethoxy)-4-pyridinyl)-2,3-dihydro-1-benzofuran-3-yl)-1H-pyrazolo[4,3-c]quinoline-8-carboxamide]
4 | 7060 nM | 383 nM | CN(C(=O)c1cc2c3c(c(N)nc2cc1F)COC3)[C@@H]1COc2cc(-c3ccc(S(F)(F)(F)(F)F)cc3)ccc21 [Example 667, 4-amino-7-fluoro-N-methyl-N-((3S)-6-(4-(pentafluoro-lambda~6 ~- sulfanyl)phenyl)-2,3-dihydro-1-benzofuran-3-yl)-1,3-dihydrofuro[3,4-c]quinoline-8-carboxamide]
5 | 2920 nM | 85 nM | CN(C(=O)c1ccc2nc(N)c3cnn(C)c3c2c1)[C@@H]1COc2cc(-c3ccc(S(F)(F)(F)(F)F)cc3)ccc21 [Example 668, 4-amino-N,1-dimethyl-N-((3S)-6-(4-(pentafluoro-lambda~6~- sulfanyl)phenyl)-2,3-dihydro-1-benzofuran-3-yl)-1H-pyrazolo[4,3-c]quinoline-8-carboxamide]
6 | 4280 nM | 34 nM | COc1ccc2c(c1)OC[C@H]2N(C)C(=O)c1ccc2nc(N)c3cnn(C)c3c2c1 [Example 671, (S)-4-amino-N-(6-methoxy-2,3-dihydrobenzofuran-3-yl)-N,1-dimethyl-1H-pyrazolo[4,3-c]quinoline-8-carboxamide]
7 | 3520 nM | 44 nM | CN(C(=O)c1ccc2nc(N)c3cnn(C)c3c2c1)[C@@H]1COc2cc(OC3CC3)ccc21 [Example 672, (S)-4-amino-N-(6-cyclopropoxy-2,3-dihydrobenzofuran-3-yl)-N,1-dimethyl-1H-pyrazolo[4,3-c]quinoline-8-carboxamide 2,2,2-trifluoroacetate]
8 | 13100 nM | 120 nM | CN(C(=O)c1ccc2nc(N)c3cnn(C)c3c2c1)[C@@H]1COc2ccccc21 [Example 673, (S)-4-amino-N-(2,3-dihydrobenzofuran-3-yl)-N,1-dimethyl-1H-pyrazolo[4,3-c]quinoline-8-carboxamide 2,2,2-trifluoroacetate]
9 | 8610 nM | 156 nM | CCOc1ccc2c(c1)OC[C@H]2N(C)C(=O)c1cc2c3c(c(N)nc2cn1)COC3 [Example 674, 4-amino-N-((3S)-6-ethoxy-2,3-dihydro-1-benzofuran-3-yl)-N-methyl-1,3-dihydrofuro[3,4-c][1,7]naphthyridine-8-carboxamide]
10 | 2750 nM | 25 nM | CCOc1ccc2c(c1)OC[C@H]2N(C)C(=O)c1ccc2nc(N)c3cnn(C)c3c2c1 [Example 675, 4-amino-N-((3S)-6-ethoxy-2,3-dihydro-1-benzofuran-3-yl)-N,1-dimethyl-1H-pyrazolo[4,3-c]quinoline-8-carboxamide]
11 | 2590 nM | 40 nM | CN(C(=O)c1ccc2nc(N)c3cnn(C)c3c2c1)[C@@H]1COc2cc(OC3CCC3)ccc21 [Example 676, 4-amino-N-((3S)-6-(cyclobutyloxy)-2,3-dihydro-1-benzofuran-3-yl)-N,1-dimethyl-1H-pyrazolo[4,3-c]quinoline-8-carboxamide]
12 | 9810 nM | 137 nM | CN(C(=O)c1ccc2nc(N)c3cnn(C)c3c2c1)[C@@H]1COc2cc(OC3COC3)ccc21 [Example 677, 4-amino-N,1-dimethyl-N-((3S)-6-(3-oxetanyloxy)-2,3-dihydro-1-benzofuran-3-yl)-1H-pyrazolo[4,3-c]quinoline-8-carboxamide]
13 | 2780 nM | 29 nM | COCCOc1ccc2c(c1)OC[C@H]2N(C)C(=O)c1ccc2nc(N)c3cnn(C)c3c2c1 [Example 678, 4-amino-N-((3S)-6-(2-methoxyethoxy)-2,3-dihydro-1-benzofuran-3-yl)-N,1-dimethyl-1H-pyrazolo[4,3-c]quinoline-8-carboxamide]
14 | 2270 nM | 26 nM | Cc1ccc2c(n1)COC[C@H]2N(C)C(=O)c1ccc2nc(N)c3cnn(C)c3c2c1 [Example 679, (S)-4-amino-N,1-dimethyl-N-(2-methyl-5,8-dihydro-6H-pyrano[3,4-b]pyridin-5-yl)-1H-pyrazolo[4,3-c]quinoline-8-carboxamide]
15 | 3580 nM | 38 nM | Cc1ccc2c(c1)OC[C@H]2N(C)C(=O)c1ccc2nc(N)c3cnn(C)c3c2c1 [Example 683, 4-amino-N,1-dimethyl-N-((3S)-6-methyl-2,3-dihydro-1-benzofuran-3-yl)-1H-pyrazolo[4,3-c]quinoline-8-carboxamide]
16 | 227 nM | 6 nM | CN(C(=O)c1ccc2nc(N)c3cnn(C)c3c2c1)[C@@H]1COCc2nc(C3CC3)ccc21 [Example 684, 4-amino-N-((5S)-2-cyclopropyl-5,8-dihydro-6H-pyrano[3,4-b]pyridin-5-yl)-N,1-dimethyl-1H-pyrazolo[4,3-c]quinoline-8-carboxamide]
17 | 1520 nM | 22 nM | COC(=O)c1ccc2c(c1)OC[C@H]2N(C)C(=O)c1ccc2nc(N)c3cnn(C)c3c2c1 [Example 685, methyl (S)-3-(4-amino-N,1-dimethyl-1H-pyrazolo[4,3-c]quinoline-8-carboxamido)-2,3-dihydrobenzofuran-6-carboxylate]
18 | 11400 nM | 129 nM | CN(C(=O)c1ccc2nc(N)c3cnn(C)c3c2c1)[C@@H]1COc2cc(CO)ccc21 [Example 686, (S)-4-amino-N-(6-(hydroxymethyl)-2,3-dihydrobenzofuran-3-yl)-N,1-dimethyl-1H-pyrazolo[4,3-c]quinoline-8-carboxamide]
19 | 846 nM | 12 nM | CN(C(=O)c1ccc2nc(N)c3cnn(C)c3c2c1)[C@@H]1COc2cc(Cl)ccc21 [Example 687, (S)-4-amino-N-(6-chloro-2,3-dihydrobenzofuran-3-yl)-N,1-dimethyl-1H-pyrazolo[4,3-c]quinoline-8-carboxamide 2,2,2-trifluoroacetate]
20 | 431 nM | 5 nM | CN(C(=O)c1ccc2nc(N)c3cnn(C)c3c2c1)[C@@H]1COc2cc(C3CCOCC3)ccc21 [Example 688, (S)-4-amino-N,1-dimethyl-N-(6-(tetrahydro-2H-pyran-4-yl)-2,3-dihydrobenzofuran-3-yl)-1H-pyrazolo[4,3-c]quinoline-8-carboxamide]
21 | 4540 nM | 101 nM | CC(=O)N1CC=C(c2ccc3c(c2)OCC3N(C)C(=O)c2ccc3nc(N)c4c(c3c2)COC4)CC1 (stereo not drawn) [Example 689, N-(6-(1-acetyl-1,2,3,6-tetrahydropyridin-4-yl)-2,3-dihydrobenzofuran-3-yl)-4-amino-N-methyl-1,3-dihydrofuro[3,4-c]quinoline-8-carboxamide]

From US20240124442A1, “TRICYCLIC-AMIDO-BICYCLIC PRMT5 INHIBITORS” (AMGEN INC., priority 2021, published 2024)
